Measurements as given in PMC8804135 (Neurotherapeutics, 2021).

Legend:
GAL2R = molecular target: T1, GAL2R (Homo sapiens, UniProt O43603); parameters: expressed in transfected cells; host or cells: HEK293 Gqi cells, transient; plasmids from Young Seong (Korea University); details: cited from earlier work
T1 sequence (O43603 1-387): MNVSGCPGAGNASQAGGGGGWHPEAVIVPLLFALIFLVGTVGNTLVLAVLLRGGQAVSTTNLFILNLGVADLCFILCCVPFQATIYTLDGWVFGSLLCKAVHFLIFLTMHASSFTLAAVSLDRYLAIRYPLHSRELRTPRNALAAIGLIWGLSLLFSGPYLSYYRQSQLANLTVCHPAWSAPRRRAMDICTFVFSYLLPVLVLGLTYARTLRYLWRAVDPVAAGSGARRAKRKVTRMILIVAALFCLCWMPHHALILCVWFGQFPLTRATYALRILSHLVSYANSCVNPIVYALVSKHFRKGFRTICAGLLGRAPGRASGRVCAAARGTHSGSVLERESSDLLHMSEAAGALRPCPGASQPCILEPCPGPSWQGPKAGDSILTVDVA
Text: Since the discovery of the three GALRs, major effort has been directed at developing receptor-selective agonists and antagonists. These were based on substitution of certain amino acids in the galanin peptide sequence. While receptor selectivity was achieved to some degree, GAL(2–11) turned out to be a very selective non-GAL1R agonist.

[1] = system: non-fasted male Wistar rats; experiment: Food intake and body weight after intranasal application of peptides; format: in vivo, rat
Method: For intranasal delivery, 1 mg of M89b was first dissolved in 566 µl 2,2,2-trifluorethanol, 566 µl 10% (2-hydroxypropyl)-ß-cyclodextrin (HBC), and 1 µl acetic acid and incubated at 60 °C for 20 min. Another 566 µl of 10% HBC were added. The peptide was then dried in a speed-vac, and the dried pellet was dissolved in 1132 µl water by vortexing and incubation at 60 °C. M871 and GALP were purchased from GL Biochem. M871 was dissolved in saline containing 10% HBC. GALP was dissolved in saline containing 5% α-cyclodextrin.
In vivo experiments involving intranasal treatment of rats and measurement of feeding behavior were performed at the Institute for Translational Medicine, University of Pécs, Pécs, Hungary. Experiments were approved by the National Ethical Council for Animal Research (permit number, BA 02/2000–11/2018). They were also in accord with the directives of the European Communities Council on the protection of animals used for scientific purposes (86/609/EEC, Directive 2010/63/EU of the European Parliament and of the Council).
Spontaneous food intake was measured in non-fasted male Wistar rats (3 months old) for 24 h following intranasal application of peptide solutions by an automated FeedScale System (Columbus, OH). Each group of animals (6–9 rats/group) was habituated to the individual chambers of the FeedScale System until daily food intake and changes in the body weight of the animals had normalized. This habituation, which lasted for a minimum of 2 weeks, allowed adaptation to the environment, to the powdered chow and to the feeder. This powdered form of chow prevented food hoarding. A special digital scale under the cages provided precise automated measurement and continuous recording of the amount of consumed food. During the measurement of the cumulative 24 h food intake, data were collected every 30 min.
Intranasal applications were performed at 06:00 PM at the onset of the active nighttime period of rats. First, the body weight of animals was recorded, and then they were intraperitoneally anesthetized with ketamine (52 mg/kg) and xylazine (9 mg/kg). For the intranasal application of peptides, rats were placed on their backs, and 25–30 µl of peptide solution was injected gently per nostril (total volume of 50–60 μl per rat depending on the administered peptides) using a 10-μl pipette. The following solutions were applied: M89b (25 nmol in 60 µl saline containing 10% HBC); GALP (17.5 nmol in 50 µl saline containing 5% α-cyclodextrin); M871 (219 nmol in 60 µl 10% HBC); and M89b + M871 (25 nmol M89b + 219 nmol M871 in 60 µl 10% HBC). […] At 24 h post-treatment, the body weight of the animals was measured.
Statistical analysis was performed with SPSS 11.0. […] Body weight data were analyzed by applying a one-way ANOVA with Tukey’s post hoc test. […]

[2] = intranasal administration with α-cyclodextrins; cited from earlier work
Text: For delivery of therapeutic peptides and proteins to the brain, the blood–brain barrier (BBB) is a major impediment. Intranasal delivery might provide a non-invasive means to bypass the BBB. Advantages of applying peptides via the nasal route, provided they do indeed reach the brain, include minimizing exposure to peripheral organs and tissues, thus reducing systemic side effects. […] Intranasal delivery of peptides may provide the ability to target specific re ...

[3] = In vitro stability in rat serum; format: in vitro ADME; details: 5% rat serum, 20 mM phosphate pH 7.4, 37 °C, 10 µM, HPLC A280, n = 2–3
Method: At various time points (0, 30, 90, 270, and 1410 min), 180 µl of samples were quenched with 10 µl 10% TFA and 20 µl 100% ACN. Samples were centrifuged and kept on ice. The amount of full-length peptides in the serum was analyzed using a C12 column (C12 RP 250 × 4.60 mm column, Phenomenex) on a JASCO HPLC system and applying a gradient of 10–90% ACN in 0.1% TFA for 45 min. Peptides were detected at 280 nm. A280 areas in chromatograms of the corresponding GAL-(1–15) and M89b full-length peptide peaks were used to determine the amount of peptide left after incubation with 5% rat serum at the different time points. Peptide peaks were determined using JASCO-Borwin Chromatography software (v1.50).

[4] = In vitro stability in cerebrospinal fluid; format: in vitro ADME; details: cerebrospinal or other body fluid; pooled male Wistar Hannover rat cerebrospinal fluid, 37 °C; 4 µl 0.50 mM peptide + 10 µl CSF; after 4 h; HPLC A280; n = 2–3; read-out: Peptide retrieved in CSF
Method: Pooled male Wistar Hannover rat cerebrospinal fluid was purchased from BioIVT (West Sussex, UK). Stability of peptides was analyzed by incubation of 4 µl 0.50 mM GAL-(1–15) with 10 µl cerebrospinal fluid or 6 µl 0.33 mM M89b with 10 µl cerebrospinal fluid at 37 °C [43]. At various time points (0, 30, 60, 240, and 480 min), the reactions were quenched with 2 µl 50% TFA and 20 µl 100% ACN. Water was added to reach a final volume of 220 µl. Samples were centrifuged and kept on ice. Full-length peptides were quantified by using a C12 column (C12 RP 250 × 4.60 mm column, Phenomenex) on a JASCO HPLC system and applying a gradient of 20–90% ACN in 0.1% TFA for 30 min. Peptides were detected at 280 nm. A280 areas in chromatograms of the corresponding GAL-(1–15) and M89b full-length peptide peaks were used to determine the amount of peptide left after incubation with cerebrospinal fluid at the different time points. Peptide peaks were determined using JASCO-Borwin Chromatography software (v1.50).

[5] = In vitro stability in brain plasma; format: in vitro ADME, rat; details: 1% Sprague dawley rat brain plasma, 200 mM phosphate pH 7.4, 37 °C, 10 µM; after 1 h; HPLC A280; n=3
Method: The method to study the stability of peptides in brain plasma is described in the Supplementary material. […]
receptor-2-selective agonist reduces acute food intake
Anneke Kuipers1, Márta Balasko2, Erika Pétervári2, Andreas Koller3,4, Susanne M.
Brunner3,4, Gert N. Moll1,5, Barbara Kofler 3*
In vitro stability in brain plasma
Sprague dawley rat brain lyophilized powder was purchased from MyBioSource (San Diego, USA). One gram brain powder was reconstituted in 10 ml PBS, 0.5 ml 2 M Tris (pH=8), 100 µl Triton X -100 and 10 mg SDS. The solution was centrifuged and the supernatant was collected, aliquoted and stored at -20 °C until usage. To assess the stability, 10 µM GAL-(1-15) and 10 µM M89b were incubated in 1% brain plasma buffered with 200 mM phosphate buffer (pH 7.4) at 37°C for up to 6 hours. At various time points […]
20 µl 100% ACN. Samples were centrifuged and kept on ice. Full-length peptides were quantified by using a C12 column (C12 RP 250 x 4.60 mm column, Phenomenex) on a JASCO HPLC system and applying a gradient of 20 -90% ACN in 0.1% TFA for 30 minutes.
Peptides were detected at 280 nm. A280 areas in chromatograms of the corresponding GAL-(1-15) and M89b full-length peptide peaks were used to determine the amount of peptide left after incubation with cerebrospinal fluid at the different time points. Peptide peaks were determined using JASCO-Borwin Chromatography software (v1.50).

[6] = cited from earlier work
Text: The use of natural galanin in clinical applications faces two serious limitations: lack of receptor specificity and in vivo susceptibility to rapid peptidase-mediated breakdown. […] Recently, a selective GAL2R agonist based on the sequence of spexin, a newly discovered natural peptide with affinity for GAL2R and ...

Ala5-galanin(2–11)
Preference for GAL2R compared to both GAL1R and GAL3R (GAL2R): more than 375 fold

galanin-like peptide (APAHRGRGGWTLNSAGYLLGPVLHLPQMGDQDGKRETALEILDLWKAIDGLPYSHPPQPS; Galanin-like peptide; UniProt Q9UBC7 25-84, looked up) [GALP, reference compound]
Reduction of 24-h food intake ([1]; intranasal 17.5 nmol in 50 µl saline with 5% α-cyclodextrin, vs vehicle, p = 0.038): 19%
24-h body weight change ([1]; intranasal 17.5 nmol in saline with 5% α-cyclodextrin, p = 0.0247 as printed): trend of reduction, but this change did not reach statistical significance
Increase of uptake in all brain regions compared to GALP alone [2]: two- to threefold

CC(C)C[C@H](NC(=O)[C@H](CC(C)C)NC(=O)[C@H](Cc1ccc(O)cc1)NC(=O)CNC(=O)[C@H](C)NC(=O)[C@H](CO)NC(=O)[C@H](CC(N)=O)NC(=O)[C@H](CC(C)C)NC(=O)[C@@H](NC(=O)[C@H](Cc1c[nH]c2ccccc12)NC(=O)CN)[C@@H](C)O)C(=O)NCC(=O)N1CCC[C@H]1C(=O)N[C@@H](Cc1c[nH]cn1)C(=O)N[C@@H](C)C(N)=O [GAL-(1–15), reference compound]
metabolised at 0.5 h, 10 µM ([3]; after 30 min, read-out: Peptide degraded in rat serum): 80%
remaining at 1.5 h, 10 µM ([3]; after 90 min, read-out: Peptide detectable in rat serum): < 2%
remaining at 4 h, 143 µM [4]: < 4%
Degradation in brain plasma [5]: the whole amount of GAL-(1–15) was degraded

CC(C)C[C@H](NC(=O)CNC(=O)[C@H](CC(N)=O)NC(=O)[C@H](CCCCN)NC(=O)[C@H](CC(=O)O)NC(=O)[C@H](CO)NC(=O)[C@H](Cc1ccccc1)NC(=O)[C@H](CO)NC(=O)[C@H](CCCNC(=N)N)NC(=O)[C@H](Cc1cnc[nH]1)NC(=O)[C@H](CC(N)=O)NC(=O)CNC(=O)[C@@H](NC(=O)[C@H](C)NC(=O)[C@H](Cc1cnc[nH]1)NC(=O)[C@@H]1CCCN1C(=O)CNC(=O)[C@H](CC(C)C)NC(=O)[C@H](CC(C)C)NC(=O)[C@H](Cc1ccc(O)cc1)NC(=O)CNC(=O)[C@H](C)NC(=O)[C@H](CO)NC(=O)[C@H](CC(N)=O)NC(=O)[C@H](CC(C)C)NC(=O)[C@@H](NC(=O)[C@H](Cc1c[nH]c2ccccc12)NC(=O)CN)[C@@H](C)O)C(C)C)C(=O)N[C@H](C(=O)N[C@@H](CO)C(=O)O)[C@@H](C)O [galanin]
In vivo half-life in plasma [6]: around 4 min
